Drawing on PubChem BioAssay (NCI), this text covers TGI and GI50 for 24 compounds.

Where “and” joins values, the source holds several entries; their conditions need not be identical. Equal values may be shown once.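 Values below derive from 48-hour exposures of cells grown in 96-well plates, with endpoints linearly interpolated between the two concentrations bracketing the appropriate inhibition level. GI50 is the concentration that inhibits growth by half. The concentration for full growth arrest is given as TGI.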

What all share (assay): NCI-60 cell line screen, 48 h
Test [1] concerns SK-OV-3 ovarian.
For test [2], the system named is HCT-116 colon.
For test [3], the system named is HT29 colon.
The test system of test [4] is SK-MEL-2 melanoma.
Test [5] has as its system LOX IMVI melanoma.
Test [6] relates to OVCAR-5 ovarian.
In test [7] the test system is CCRF-CEM leukemia.
For test [8], the system named is UO-31 renal.
Test [9] has as its system NCI-H522 lung.
Test [10] relates to A498 renal.

With `COc1ccc(C(C#N)NC23CC4CC(CC(C4)C2)C3)cc1OC` (centres undefined), the TGI in test [1], in [2], in [3], in test [4], in test [5] and in test [6] was over 100 µM in each case. For the same compound, the TGI in test [7], in test [8] and in test [9] was over 100 µM each time.

With `COc1ccc(-c2nn(-c3ccc(NC(=O)c4ccc(Cl)c(C(F)(F)F)c4)cc3)cc2-c2ccncc2)cc1Cl`, the GI50 is 1050 nM in test [2]; 337 nM in test [3]; 0.345 µM in [4]; 237 nM in test [10]; 1330 nM in test [6]; 0.582 µM in test [7]. Besides, the figures for the GI50 in test [8] and in test [9] were 566 nM and 4.03 µM, respectively. The TGI in test [2] is over 100 µM; in test [3], 1.96 µM; in [4], 1.44 µM; in test [10], 4.47 µM; in test [6], over 100 µM; in test [7] it was over 100 µM. Besides, the TGI is over 24.7 µM in [8] and over 100 µM in test [9].

As for `CNC(=S)N/N=C1\CC(c2ccccc2)Oc2ccccc21` (centres undefined), the TGI in test [1], in test [2], in [3], in test [4], in [5] and in [6] was over 100 µM each time. In addition, the TGI in [7], in [8] and in test [9] was over 100 µM in each case.

For the compound `C/C=C(\C)c1cc(=O)c2c(C)cc3c(c2o1)C(=O)c1c(O)c(C2CC(C)(N(C)C)C(O)C(C)O2)cc(C2CC(N(C)C)C(O)C(C)O2)c1C3=O` (centres undefined), the TGI in test [2] is 1.3 µM and 10.2 µM; in test [3] it was 1.72 µM and 6.46 µM; in test [4], 12.2 µM; in test [10], 0.453 µM; in test [7] it was over 52 µM. Also, the GI50 in [4] was 3.67 µM; in test [6], 579 nM and 3790 nM; in test [8], 531 nM and 3980 nM.

For `NC(C/[N+]([O-])=N/O)C(=O)O` (centres undefined), the GI50 was 58 µM and > 100 µM and 55.7 µM in [1]; 1010 nM and 2070 nM and 954 nM in [2]; 115 µM in test [4]; > 29.3 µM and 11.3 µM in test [7]; 5550 nM and 2440 nM and 2130 nM in test [8]; 8.03 µM and 33.6 µM in test [9]. Further, the TGI was > 100 µM and 300 µM in test [1]; over 395 µM in test [3]; > 100 µM and 359 µM in [4]; > 100 µM and 153 µM in [5]; > 100 µM and 230 µM in [6]; > 100 µM and 418 µM in test [7]. The TGI in test [8] is > 100 µM and 235 µM; in [9], > 59.6 µM and 284 µM.

Consider `CC1(C)CCC[C@@]2(C)C1C[C@H](O)[C@@]1(C)O[C@@](C)([C@H](O)CO)CCC21` (some centres undefined), for which the TGI in test [1] was 79.4 µM; in test [2], over 100 µM; in test [3], 86 µM; in test [4] it was 60 µM; in test [10] it was 77.1 µM; in test [6], over 100 µM. Besides, the TGI in test [7] was over 100 µM; in test [8] it was 85.3 µM; in [9], 89.8 µM.

In the case of `O=C(O)C1CCc2nnc(-c3ccccc3)n21` (centres undefined), the TGI in test [1], in [2], in test [4], in test [10], in test [7] and in test [8] was over 100 µM each time. For the same compound, the TGI in test [9] is over 100 µM.

As for `CC(C)(C)[Si](C)(C)OCC1CCC(n2cnc3c(=O)[nH]cnc32)O1` (centres undefined), the TGI in [1], in test [2], in test [3], in test [4], in test [5] and in [6] was over 100 µM throughout. Besides, the TGI in test [7], in [8] and in [9] was over 100 µM each time.

`O=C1c2ccccc2C(=O)C2C1C1C(=O)c3ccccc3C(=O)C21` (centres undefined): the TGI in [1], in test [3], in [4], in test [5], in test [6] and in test [7] was over 100 µM throughout. The TGI in test [8] and in [9] was over 100 µM throughout.

`O=C(Cc1nc2ccccc2c(=O)n1-c1c(Cl)cccc1Cl)c1ccncc1`: the TGI was over 100 µM in [1]; 39.7 µM in test [2]; 45.8 µM in [3]; 46.3 µM in test [4]; over 10 µM in test [5]; 72.3 µM in test [10]. Further, the TGI in test [7] is 45.2 µM; in test [8], 55 µM; in test [9], 49.5 µM.

As to `COc1cc(=O)oc(/C=C/C=O)c1C`, the TGI in test [1] was 75.9 µM; in test [2], 17.4 µM; in test [3], 40.7 µM; in [5], 16.6 µM; in [10], over 100 µM; in [6], over 100 µM. Besides, the TGI in [7] was determined as 88.3 µM; in test [8], 39.4 µM; in test [9], 35.3 µM.

For `COc1ccc2c(c1)[C@]1(C[C@H]1c1ccc3c(/C=C/c4ccc(CN5C[C@@H](C)O[C@@H](C)C5)cc4)n[nH]c3c1)C(=O)N2`, the GI50 in [1] is 15.1 µM; in test [2], 1770 nM; in [3] it was 2830 nM; in test [4], 8.28 µM; in test [5], 1960 nM; in test [10] it was 2340 nM. Further, the GI50 in test [6] is 8260 nM; in [8] it was 2840 nM; in test [9] it was 6.4 µM. Besides, the TGI was over 100 µM in [1]; 12.1 µM in test [2]; 11.6 µM in test [3]; over 100 µM in test [4]; 10.4 µM in test [5]; 30.6 µM in test [10]. Moreover, the TGI in test [6], in test [8] and in test [9] was over 100 µM in each case.

`COc1cc2c(c(OC)c1OC)C(=O)CC(c1cccc(NC(=O)c3ccc(Br)cc3)c1)O2` (centres undefined): the GI50 in [1] was 4.32 µM; in test [2], 2630 nM; in [3], 2770 nM; in test [4] it was 2.16 µM; in test [5], 2410 nM; in test [10], 1550 nM. The GI50 in test [6] was over 100000 nM; in [8], 1490 nM; in test [9] it was 1.49 µM. Moreover, the TGI in test [1] was over 100 µM; in test [2] it was over 100 µM; in [3], over 100 µM; in test [4] it was 5.38 µM; in [5], over 100 µM; in [10], 8.15 µM. Besides, the TGI is over 100 µM in test [6], over 100 µM in [8] and 6.43 µM in test [9].

Consider `CCCN(CCCN)/[N+]([O-])=N\O`, for which the TGI in [1], in [2], in [3], in test [4], in test [6] and in test [7] was over 100 µM throughout. Also, the TGI in test [8] and in test [9] was over 100 µM in each case.

In the case of `O=C(Cn1c(=O)c(-c2ccccc2)nc2ccccc21)c1ccc(Cl)cc1`, the GI50 in test [1] is 46.4 µM; in [2], over 100000 nM; in test [3] it was 41700 nM; in test [4] it was over 100 µM; in test [5] it was 55000 nM; in test [6] it was over 100000 nM. The figures for the GI50 in [7], in test [8] and in test [9] were over 100 µM, 80800 nM and over 100 µM, respectively. Moreover, the TGI in [1], in test [2], in test [3], in test [4], in test [5] and in test [6] was over 100 µM in each case. Besides, the TGI in test [7], in test [8] and in test [9] was over 100 µM each time.

Turning to `COC(=O)[C@H]1[C@H]2C[C@@H]3c4[nH]c5cc(OC)ccc5c4CCN3C[C@H]2C[C@@H](OC(=O)c2cc(OC)c(OC)c(OC)c2)[C@@H]1OC`, the TGI in test [2] is 31.5 µM; in test [3], 29.8 µM; in test [4], 38.1 µM; in [6] it was over 100 µM; in [7], 44.1 µM; in [8], 43.5 µM. In test [9], this compound returned a TGI of 34 µM.

Consider `CC1(C)OC(=O)[C@@](C)([C@H](O)c2ccccc2)O1`, for which the TGI in test [1], in test [2], in test [3], in test [4], in test [10] and in test [7] was over 100 µM throughout. The TGI in test [8] and in [9] was over 100 µM each time.

On to `CN1C(OCc2ccccc2)c2c(ccc3c2OCO3)C2C=Cc3cc4c(cc3C21)OCO4` (centres undefined), for which the TGI in test [1] worked out at 2.46 µM; in test [2], 1.44 µM; in [3], 1.47 µM; in test [4], 2.92 µM; in test [5] it was 0.337 µM; in [6], 2.86 µM. For the same compound, the values for the TGI in test [7], in [8] and in test [9] were 1.05 µM, 2.59 µM and 2.16 µM, respectively.

Consider `N=Nc1c(OC(=O)Nc2ccccc2)[nH]c2ccccc12`, for which the TGI came out at 36.8 µM in [1]; 31.6 µM in test [2]; 96.2 µM in [3]; 44.6 µM in test [4]; 33.7 µM in test [5]; 34.7 µM in test [10]. Moreover, the TGI is over 100 µM in test [6], 25.6 µM in test [8] and 36.6 µM in test [9].

`CN1CCN(CCCOc2cccc3nc(Nc4ccc(Cl)c(F)c4)ccc23)CC1`: the GI50 in [1] is 1.79 µM; in [2], 1560 nM; in [3], 1410 nM; in [4], 1.88 µM; in test [5], 1640 nM; in test [10], 2390 nM. Further, the GI50 in [6] was 1550 nM; in test [8] it was 1570 nM; in [9], 1.75 µM. Further, the TGI amounted to 3.44 µM in test [1]; 3.03 µM in test [2]; 2.8 µM in test [3]; 3.7 µM in test [4]; 3.17 µM in test [5]; 8.28 µM in test [10]. Moreover, the results for the TGI in test [6], in [8] and in test [9] were 3.26 µM, 3.32 µM and 3.33 µM, respectively.

Take `COc1ccc(Cl)cc1Nc1nc(C(F)(F)F)ccc1C(=O)N/N=C/c1ccc([N+](=O)[O-])cc1`: the GI50 in test [1] is 1.73 µM; in test [2], 2450 nM; in test [3] it was 2200 nM; in [5], 1390 nM; in [10], 1860 nM; in [6], 1730 nM. For the same compound, the results for the GI50 in test [7], in test [8] and in test [9] were 30.8 µM, 1770 nM and 1.62 µM, respectively. In addition, the TGI in test [1] turned out to be 5.77 µM; in test [2], 14.7 µM; in test [3] it was 5.49 µM; in test [5] it was 4.79 µM; in test [10], 6.45 µM; in test [6], 7.59 µM. Moreover, the TGI in [7] is over 100 µM; in [8], 5.97 µM; in test [9], 4.77 µM.

Turning to `Cc1ccc(NC(=O)CC/C(CC(=O)C(C)(C)C)=N/NC(=O)C(N)=O)cc1C`, the TGI in [1], in [2], in [3], in [4], in test [10] and in [6] was over 100 µM in each case. The TGI in test [7], in test [8] and in test [9] was over 100 µM in each case.

As for `O=C(CC(=O)c1ccc([N+](=O)[O-])cc1)C(=O)Nc1nccs1`, the TGI in test [1], in test [2], in test [3], in test [4], in test [5] and in [6] was over 100 µM each time. The TGI in test [7], in [8] and in test [9] was over 100 µM in each case.

`C[C@@H](C1CCC2C3C(=CC(=O)[C@@]21C)[C@H](C)[C@]1(CCC(=O)O1)C1OC31)[C@H]1C[C@]2(C)O[C@@](C)(O1)OC2(C)C` (some centres undefined): the TGI in test [1], in [2], in [3], in [5], in [10] and in [7] was over 100 µM each time. For the same compound, the TGI in test [8] and in test [9] was over 100 µM throughout.
